Reference: patent EP4786461A1, “PYRAZOLE CARBOXYLIC ACID DERIVATIVE AND USE THEREOF IN MEDICINE” (Haisco Pharmaceutical Group Co., Ltd., priority 2023, dated 2025)
Where a name gives a salt, the structure may show the parent alone. Read-outs that look alike come from different tables or passages of the source.

Key:
[1] = biological target: T1, soluble guanylate cyclase (sGC) (Homo sapiens, UniProt Q02108+Q02153); experiment: In vitro detection experiment for soluble guanylate cyclase (sGC) activity (TR-FRET cGMP); type: biochemical; details: enzymatic agonism and/or activation of sGC; 1.5 nM sGC, 5 µM GTP, 100 µM DETA NONOate
T1 construct: purchased ICE S2304F-H07SH2
T1 sequence (Q02153 1-619): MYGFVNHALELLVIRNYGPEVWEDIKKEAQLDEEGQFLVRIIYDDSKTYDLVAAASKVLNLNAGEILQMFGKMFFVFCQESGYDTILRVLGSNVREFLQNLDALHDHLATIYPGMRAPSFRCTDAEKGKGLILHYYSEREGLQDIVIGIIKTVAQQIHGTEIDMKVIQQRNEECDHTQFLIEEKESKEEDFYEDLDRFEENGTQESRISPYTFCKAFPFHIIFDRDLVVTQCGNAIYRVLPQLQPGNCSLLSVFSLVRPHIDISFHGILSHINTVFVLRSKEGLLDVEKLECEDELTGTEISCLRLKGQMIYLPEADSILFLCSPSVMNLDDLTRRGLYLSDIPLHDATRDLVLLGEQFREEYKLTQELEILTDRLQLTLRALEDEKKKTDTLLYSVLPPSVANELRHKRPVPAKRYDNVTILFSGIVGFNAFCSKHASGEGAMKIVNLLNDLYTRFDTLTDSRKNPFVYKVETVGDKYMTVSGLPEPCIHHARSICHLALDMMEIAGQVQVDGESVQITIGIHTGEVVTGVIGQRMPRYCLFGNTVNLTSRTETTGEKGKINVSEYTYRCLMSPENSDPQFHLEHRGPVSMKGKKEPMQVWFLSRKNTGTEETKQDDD
T1 sequence (Q02108 1-690): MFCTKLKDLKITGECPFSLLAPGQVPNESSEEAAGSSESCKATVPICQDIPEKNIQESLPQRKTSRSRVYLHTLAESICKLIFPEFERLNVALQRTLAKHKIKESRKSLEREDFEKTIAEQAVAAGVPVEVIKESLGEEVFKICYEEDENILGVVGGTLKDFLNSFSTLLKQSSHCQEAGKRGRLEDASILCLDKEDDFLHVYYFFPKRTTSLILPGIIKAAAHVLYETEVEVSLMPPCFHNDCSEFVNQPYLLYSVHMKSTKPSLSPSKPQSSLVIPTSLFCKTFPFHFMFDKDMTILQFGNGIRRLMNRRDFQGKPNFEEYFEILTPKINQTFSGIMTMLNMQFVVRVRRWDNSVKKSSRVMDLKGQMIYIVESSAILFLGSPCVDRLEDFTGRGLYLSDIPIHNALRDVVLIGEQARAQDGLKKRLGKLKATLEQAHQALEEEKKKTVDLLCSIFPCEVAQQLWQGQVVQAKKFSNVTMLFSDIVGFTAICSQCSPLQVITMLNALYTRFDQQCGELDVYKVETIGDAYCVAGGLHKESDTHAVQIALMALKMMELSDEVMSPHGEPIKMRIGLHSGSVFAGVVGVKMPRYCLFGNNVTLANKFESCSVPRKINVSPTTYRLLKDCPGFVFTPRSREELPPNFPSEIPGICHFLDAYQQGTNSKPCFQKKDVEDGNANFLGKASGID
Experimental: First, 100 nL of the compounds at different concentrations were transferred to a 384-well reaction plate (Greiner, Cat. No. 784075) using Echo 655 (LABCYTE, Cat # 655), with the final DMSO concentration of 1% in the reaction mixture; 2 µL of sGC (ICE, Cat. No. S2304F-H07SH2) was added to the 384-well reaction plate, and the mixture was centrifuged at 1000 rpm for 1 min; and then 1 µL of DETA NONOate was added, and the mixture was incubated at 37°C for 10 min. After the incubation was completed, 2 µL of GTP was added, and the mixture was centrifuged at 1000 rpm for 1 min and reacted at 37°C for 60 min. In the reaction system, the final concentrations of sGC, GTP, and DETA NONOate were 1.5 nM, 5 µM, and 100 µM, respectively. After the reaction was completed, 5 µL of the test mixture (PerkinElmer, Cat. No. 62GM2PEG) was added, and the mixture was incubated at room temperature for 60 min. The TR-FRET signal (Ratio: 665/620 nm) was read using a microplate reader (BMG, Cat. No. PHERAstar FSX). A nonlinear regression curve was fitted using GraphPad Prism software, and EC50 values were calculated. Compound A (Example 1 in WO 2010065275) was used as a positive reference compound. The activation rate was calculated according to Equation 2-1, where Low control represents the TR-FRET signal value of 1 µM compound A, and High control represents the TR-FRET signal value in the DMSO well. Stimulation% = (aveHighcontrol−cpdwell)/(ave High control−ave Low; control)*100% [formula] Table 2-1 Results of enzymatic agonism and/or activation of test compounds on soluble guanylate cyclase (sGC).

[2] = Stability test in rat liver microsomes; type: in vitro ADME
Experimental: At 37°C, 1 µM of the test compound was incubated with rat liver microsomes (0.5 mg/mL) supplemented with an NADPH regeneration system for 5, 10, 20, 30 and 60 minutes, and then the LC-MS/MS method was used to detect the concentration of the test compound in the resulting sample. The half-life (T1/2) and intrinsic clearance (CLint(mic)) of the compound in rat liver microsome solution were obtained by calculating the remaining percentage of the compound at the corresponding time points.

[3] = Mouse pharmacokinetic assay; type: in vivo, ICR mice; details: mice, i.g., 10 mg/kg, plasma
Experimental: Experimental objective: In this experiment, a single dose of test compounds was administered to ICR mice intravenously and intragastrically, the concentrations of the test compounds in the plasma of mice were measured, and the pharmacokinetic characteristics and bioavailability of the test compounds in mice were evaluated.
Experimental animals: male ICR mice, 20-35 g, purchased from Chengdu Dossy Experimental Animals Co., Ltd.
Experimental method: On the day of the experiment, the ICR mice were randomly grouped according to their body weight. The animals were fasted but with water available overnight before the administration, and fed 4 h after the administration.
Sampling: Blood was taken from the orbits at specified time points, and placed in an EDTAK2 centrifuge tube. The tube was centrifuged at 5000 rpm for 10 min, and the plasma was collected.
Time points for plasma collection in G1 group: 0, 5 min, 15 min, 30 min, 1 h, 2 h, 4 h, 7 h, and 24 h.
Time points for plasma collection in G2 group: 0, 5 min, 15 min, 30 min, 1 h, 2 h, 4 h, 7 h, and 24 h.
Before analysis and detection, all the samples were stored at -60°C or lower. The samples were analyzed quantitatively by LC-MS/MS. Table 3-1 PK data of test compound (i.e., drug) in mice

[4] = Rat pharmacokinetic assay; type: in vivo, SD rats; details: rats, i.g., 10 mg/kg, plasma
Experimental: Experimental animals: male SD rats, 180-200 g, purchased from Chengdu Dossy Experimental Animals Co., Ltd.
Experimental design: On the day of the experiment, the SD rats were randomly grouped according to their body weight. The animals were fasted but with water available overnight before the administration, and fed 4 h after the administration.
Blood was taken from the orbits at specified time points, and placed in an EDTAK2 centrifuge tube. The tube was centrifuged at 5000 rpm for 10 min, and the plasma was collected.
Blood sampling time points for the intravenous administration group: 0, 5 min, 15 min, 30 min, 1 h, 2 h, 4 h, 7 h and 24 h; blood sampling time points for the intragastric administration group: 0, 5 min, 15 min, 30 min, 1 h, 2 h, 4 h, 7 h and 24 h. Before analysis and detection, all the samples were stored at -60°C or lower. The samples were analyzed quantitatively by LC-MS/MS. Table 4-1 PK data of test compound (i.e., drug) in rats

[5] = rat liver microsomes 0.5 mg/mL, 1 µM compound, NADPH regeneration system, 37°C
[6] = rat, microsomes, rat liver microsomes 0.5 mg/mL, 1 µM compound, NADPH regeneration system, 37°C
[7] = rat, microsomes, rat liver microsomes 0.5 mg/mL, 1 µM compound, NADPH regeneration system, 37°C, read-out: CLint(mic)
[8] = rat liver microsomes 0.5 mg/mL, 1 µM compound, NADPH regeneration system, 37°C, 1 µM

| Compound | EC50 [1] [µM] | AUC ([4]; rat, po, read-out: AUC) [ng·h/mL] | AUC ([3]; mouse, po, read-out: AUC) [ng·h/mL] | also measured |
| --- | --- | --- | --- | --- |
| CC(C)CN1CCN(c2ccc(-c3c(F)cc(Cl)cc3N3CCCC(n4ncc(C(=O)O)c4C(F)F)C3)cc2)CC1 (racemic) [Compound 1] | < 0.02 | – | – | – |
| CC(C)CN1CCN(c2ccc(-c3c(F)cc(Cl)cc3N3CCCC(n4ncc(C(=O)O)c4C(F)F)C3)cc2)CC1 (single isomer, unassigned) [Compound 1-1] | – | – | – | half-life at 1 µM [2, 5]: 0.727 h; microsomal CLint at 1 µM ([2]; rat, microsomes): 31.8 µL/min/mg; AUC ([3]; mouse, in vivo, po, read-out: AUC): > 10000 ng·h/mL; AUC ([4]; rat, in vivo, po, read-out: AUC): > 10000 ng·h/mL |
| CC(C)CN1CCN2c3ccc(-c4ccc(Cl)cc4N4CCC[C@@H](n5ncc(C(=O)O)c5C(F)F)C4)cc3CCC2C1 (single isomer, unassigned) [Compound 8-1] | < 0.02 | > 10000 | – | half-life at 1 µM [2, 6]: 2.53 h; microsomal CLint at 1 µM [2, 7]: 9.13 µL/min/mg; AUC [3]: > 10000 ng·h/mL |
| CC(C)CN1CCN2c3ccc(-c4ccc(Cl)cc4N4CCC[C@H](n5ncc(C(=O)O)c5C(F)F)C4)cc3CCC2C1 (single isomer, unassigned) [Compound 8-2] | < 0.02 | > 10000 | > 10000 | half-life at 1 µM [2, 6]: 1.63 h; microsomal CLint at 1 µM [2, 7]: 14.1 µL/min/mg |
| CC(C)CN1CCN2c3ccc(-c4ccc(Cl)cc4N4CCC[C@@H](n5ncc(C(=O)O)c5C(F)F)C4)cc3CCC2C1 (single isomer, unassigned) [Compound 9-1] | < 0.02 | – | > 10000 | CLint(mic) [2, 8]: 11.0 µL/min/mg; T1/2 [2, 8]: 2.1 h; AUC [4]: > 10000 ng·h/mL |
| CC(C)CN1CCN(c2ccc(-c3ccc(C(F)F)cc3N3CCC[C@@H](n4ncc(C(=O)O)c4C(F)F)C3)cc2)CC1 [Compound 3-1] | < 0.02 | > 10000 | > 10000 | – |
| CC(C)CN1CCN(c2ccc(-c3ccc(C(F)F)cc3N3CCC[C@H](n4ncc(C(=O)O)c4C(F)F)C3)cc2)CC1 [Compound 3-2] | < 0.02 | – | – | – |
| CC(C)CN1CCN2c3cc(F)c(-c4ccc(Cl)cc4N4CCC[C@@H](n5ncc(C(=O)O)c5C(F)F)C4)cc3CC[C@H]2C1 [Compound 5-1] | < 0.02 | > 10000 | > 10000 | half-life at 1 µM [2, 6]: 2.33 h; microsomal CLint at 1 µM [2, 7]: 9.87 µL/min/mg |
| CC(C)CN1CCN2c3cc(F)c(-c4ccc(Cl)cc4N4CCC[C@H](n5ncc(C(=O)O)c5C(F)F)C4)cc3CC[C@H]2C1 [Compound 5-2] | < 0.02 | – | > 10000 | – |
| CC(C)CN1CCN2c3cc(F)c(-c4ccc(Cl)cc4N4CCC[C@@H](n5ncc(C(=O)O)c5C(F)F)C4)cc3CC[C@@H]2C1 [Compound 6-1] | < 0.02 | > 10000 | > 10000 | half-life at 1 µM [2, 6]: 1.87 h; microsomal CLint at 1 µM [2, 7]: 12.4 µL/min/mg |
| CC(C)CN1CCN2c3cc(F)c(-c4ccc(Cl)cc4N4CCC[C@H](n5ncc(C(=O)O)c5C(F)F)C4)cc3CC[C@@H]2C1 [Compound 6-2] | < 0.02 | > 10000 | > 10000 | half-life at 1 µM [2, 6]: 1.95 h; microsomal CLint at 1 µM [2, 7]: 11.8 µL/min/mg |
| CC(C)CN1CCN2c3ccc(-c4ccc(Cl)cc4N4CCCC(n5ncc(C(=O)O)c5C(F)F)C4)cc3CCC2C1 (stereo not drawn) [Compound 8] | < 0.02 | – | – | – |
| CC(C)CN1CC2CCC(C1)N2c1ccc(-c2ccc(Cl)cc2N2CCCC(n3ncc(C(=O)O)c3C(F)F)C2)cc1 (stereo not drawn) [Compound 10] | < 0.02 | – | – | – |
| CC(C)CN1CCN(c2ccc(-c3ccc(Cl)cc3N3CCC[C@@H](n4ncc(C(=O)O)c4C(F)F)C3)cc2)CC1 [Control compound 1, reference compound] | – | – | – | half-life at 1 µM [2, 5]: 0.183 h; microsomal CLint at 1 µM ([2]; rat liver microsomes 0.5 mg/mL, 1 µM compound, NADPH regeneration system, 37°C, read-out: CLint(mic)): 126 µL/min/mg |
| CC(C)CN1CCN2c3cc(F)c(-c4ccc(Cl)cc4N4CCCC(n5ncc(C(=O)O)c5C(F)F)C4)cc3CC[C@H]2C1 (stereo partly drawn) [Trifluoroacetate salt of Compound 5] | < 0.02 | – | – | – |
| CC(C)CN1CC=C(c2ccc(-c3ccc(Cl)cc3N3CCCC(n4ncc(C(=O)O)c4C(F)F)C3)cc2)CC1 (stereo not drawn) [Trifluoroacetate salt of Compound 11] | < 0.02 | – | – | – |
| CC(C)CN1CCC(c2ccc(-c3ccc(Cl)cc3N3CCCC(n4ncc(C(=O)O)c4C(F)F)C3)cc2)CC1 (stereo not drawn) [Trifluoroacetate salt of Compound 12] | < 0.02 | – | – | – |
